Measured values as given in patent publication US11191705B2, “Personal cleansing compositions” (The Procter & Gamble Company, priority 2018, dated 2021).

Test system: Staphylococcus aureus ATCC 6538
Experiment: Combinatorial Minimum Inhibitory Concentration (cMIC) test
Assay type: cell-based
Set-up: key to bacteria growth (values equal to or higher than 10 mean growth, less than 10 no growth): % of OD620 of control well without actives (full growth)
Conditions: for reduction of level when combined (MIC alone / level in combination): 33.3/3.13 for hinokitiol, 12.5/6.25 for piroctone olamine
Procedure: One way to combat the issues of cost of a material is to combine it with a lower cost material. This can be complicated depending on whether the materials interact, what each of the materials target, whether they can complement one another, how much of each is needed for efficacy, etc. This is considered to be an additive interaction between the materials, i.e. where each is doing what one would expect based on their individual properties. Occasionally, when materials are added together the combination performs better than what would be expected based on the individual performances. This is considered a synergistic relationship. Synergy can be determined through the use of a Combinatorial Minimum Inhibitory Concentration (“cMIC”) test. This can be used to determine the combinatorial effects of two chemicals on anti-bacterial activity in a tissue culture setting.
It has been discovered that there is a synergistic relationship between hinokitiol and a 2-pyridinol N-oxide material, piroctone olamine. cMIC testing was conducted utilizing Staphylococcus aureus as the bacteria. […] When combined, they were efficacious at levels of 6.25 ppm piroctone olamine and only 3.13 ppm of hinokitiol. Thus, a benefit is seen where the combination of piroctone olamine and hinokitiol comprise about 9 ppm or more by weight of the cleansing composition. Thus, hinokitiol and piroctone olamine levels are reduced by 10.7 times (33.3/3.13) and 2 times (12.5/6.25), respectively. […] Thus, combining piroctone olamine and hinokitiol allows for the use of less of each material and can reduce costs.
Combinatorial Minimum Inhibitory Concentration (cMIC) Method
A Combinatorial Minimum Inhibitory Concentration (“cMIC”) is used to determine the combinatorial effects of two chemicals on anti-bacterial activity in a tissue culture setting. Herein, the cMIC is a measure of the Minimum Inhibitory concentrations (MIC) of Hinokitiol in combination with Piroctone Olamine or vice versa.
1. Method Overview: • a. Each cMIC assay is run in triplicates. • b. Staphylococcus aureus ATCC 6538 is cultured on tryptic soy agar (TSA) (Oxoid CM0131) over 24 hours. The single colonies are then transferred into saline and mixed through vortex to obtain an optical density (OD) of 0.08-0.13 at 620 nm. 200 μL of this bacterial suspension is added to 19.8 mL of Mueller Hinton Broth (MHB) (BD 212322). This gives 5×10^5 cfu/mL. 100 μL of this bacteria-MHB mix is added to a 96 well flat-bottomed plate (TRP 92196). • c. Hinokitiol is pipetted into the wells in varying concentrations as indicated below. • d. Piroctone Olamine is pipetted into the wells in varying concentrations, as indicated below. • e. The plates are then read using a spectrophotometer at 620 nm. This is the 0-hour reading. • f. The plates are incubated at 37° C. between 18-24 hours with shaking at 50 rpm. • g. The optical density of the plate is then measured using a spectrophotometer at 620 nm. • h. The OD value is calculated as subtraction of the readings between 18-24 hour and the 0-hour. • i. cMIC is determined as the minimal concentration of Hinokitiol in combination with Piroctone Olamine or vice versa, corresponding to the well whose OD value is less than 10% of the OD value of the control well without Hinokitiol and Piroctone Olamine (full growth).

Row | MIC (Staphylococcus aureus, ATCC6538, single material alone, read-out: minimum inhibitory concentration (MIC) against Staphylococcus aureus) [µg/mL] | SMILES | reduction of level when combined (MIC alone / level in combination) [times] | bacteria growth (values equal to or higher than 10 mean growth, less than 10 no growth) (Hinokitiol 3.13 ppm alone (Piroctone Olamine 0 ppm)) | bacteria growth (values equal to or higher than 10 mean growth, less than 10 no growth) (Hinokitiol 6.25 ppm alone (Piroctone Olamine 0 ppm)) | bacteria growth (values equal to or higher than 10 mean growth, less than 10 no growth) (Hinokitiol 12.5 ppm alone (Piroctone Olamine 0 ppm)) | bacteria growth (values equal to or higher than 10 mean growth, less than 10 no growth) (Hinokitiol 25 ppm alone (Piroctone Olamine 0 ppm)) | bacteria growth (values equal to or higher than 10 mean growth, less than 10 no growth) (Hinokitiol 33.5 ppm alone (Piroctone Olamine 0 ppm)) | bacteria growth (values equal to or higher than 10 mean growth, less than 10 no growth) (Hinokitiol 42.5 ppm alone (Piroctone Olamine 0 ppm)) | bacteria growth (values equal to or higher than 10 mean growth, less than 10 no growth) (Hinokitiol 50 ppm alone (Piroctone Olamine 0 ppm)) | Bacterial growth (Piroctone olamine 0 ppm, Hinokitiol 33.5 ppm) | bacteria growth (values equal to or higher than 10 mean growth, less than 10 no growth) (Piroctone Olamine 3.13 ppm alone (Hinokitiol 0 ppm)) | bacteria growth (values equal to or higher than 10 mean growth, less than 10 no growth) (Piroctone Olamine 6.25 ppm alone (Hinokitiol 0 ppm)) | bacteria growth (values equal to or higher than 10 mean growth, less than 10 no growth) (Piroctone Olamine 12.5 ppm alone (Hinokitiol 0 ppm)) | bacteria growth (values equal to or higher than 10 mean growth, less than 10 no growth) (Piroctone Olamine 15 ppm alone (Hinokitiol 0 ppm)) | bacteria growth (values equal to or higher than 10 mean growth, less than 10 no growth) (Piroctone Olamine 17.5 ppm alone (Hinokitiol 0 ppm)) | bacteria growth (values equal to or higher than 10 mean growth, less than 10 no growth) (Piroctone Olamine 20 ppm alone (Hinokitiol 0 ppm)) | bacteria growth (values equal to or higher than 10 mean growth, less than 10 no growth) (Piroctone Olamine 25 ppm alone (Hinokitiol 0 ppm)) | Bacterial growth (Piroctone olamine 6.25 ppm, Hinokitiol 0 ppm) | minimum inhibitory concentration (MIC) against Staphylococcus aureus (single material alone) [ppm]
1 | 33.3 | CC(C)c1cccc(=O)c(O)c1 [Hinokitiol] | 10.7 | 78 | 103 | 65 | 17 | 4 | 2 | 1 | Yes |  |  |  |  |  |  |  |  | 
2 |  | Cc1cc(CC(C)CC(C)(C)C)n(O)c(=O)c1.NCCO (centres unmarked) [Piroctone Olamine, piroctone olamine] | 2 |  |  |  |  |  |  |  |  | 94 | 46 | 1 | 1 | 1 | 1 | 2 | Yes | 12.5
